Experimental data reported in patent US20230152304A1 (SHENZHEN MINDRAY BIO-MEDICAL ELECTRONICS CO., LTD., priority 2020, published 2023).

How the values were obtained:
[1] = pKa of the amino group of the compound
Source text: For the compound having a plurality of amino groups/imino groups, the pKa of amino group described herein refers to the first dissociation constant, that is, pKa of amino group or imino group which firstly dissociates hydrogen ion.

[2] = system: aggregated platelets induced by ADP; assay: Platelet disaggregation rate of blood samples with ADP-induced platelet aggregation (hematology analyzer, PLT_O)
Description: The compounds in Table 1 above were respectively added to a diluent used for a hematology analyzer to prepare blood sample diluents. […] Each of the compounds in Table 1 (at a final concentration 0.01 mol/L) was added to the diluent separately, pH was adjusted to 14, and the osmotic pressure was adjusted to 200 mOsm/L to obtain the treatment solution.
The venous blood of a healthy subject was collected into blood anticoagulant tubes for later use. Two aliquot blood samples (1 ml/sample) were taken. The above-mentioned diluent was added to one of the samples, the resulting solution was mixed evenly, and then the platelet count was detected in a hematology analyzer (Mindray BC-6000Plus) and recorded as: PLT_O (unaggregated). The platelet aggregation inducer ADP (at a final concentration of 0.01 mmol/L) was added to the other sample, and the resulting solution was mixed evenly. Platelets were aggregated 5 min later, at this time the above-mentioned diluent was added, and then the blood containing the aggregated platelets was detected by the hematology analyzer to obtain the platelet count, which was recorded as: PLT_O (aggregated). Another 1 ml of blood sample was taken, the platelet aggregation inducer ADP (at a final concentration of 0.01 mmol/L) was added, and the resulting solution was mixed evenly. The above-mentioned treatment solution was added 5 min later, the resulting solution was mixed evenly, and then the platelet count of the treated blood was detected by the hematology analyzer and was recorded as: PLT_O (disaggregated).

[3] = Table 3, method of Example 1 (0.01 mol/L, pH 14, ADP 0.01 mmol/L)
[4] = Table 4, pH 8.18, method of Example 1
[5] = Table 4, pH 9.96, method of Example 1
[6] = Table 2, compound 0.01 mol/L, pH 14, ADP 0.01 mmol/L
[7] = FIG. 13, 10 mmol/L, pH 9.5, ADP 0.01 mmol/L
[8] = Table 4, pH 10.64, method of Example 1
[9] = Table 5, pH 9.5, method of Example 1

1,3-diaminopropane
pKa ([1]; Table 3): 10.4
Platelet disaggregation rate [2, 3]: 91.14%

2-aminoacetamide
pKa ([1]; Table 4): 7.93
Platelet disaggregation rate [2, 4]: 64.57%

3-amino-1-propanol
Platelet disaggregation rate [2, 5]: 81.43%

Nc1cc(N)cc(N)c1 [1,3,5-triaminobenzene]
pKa ([1]; pKa, Table 3): 5.5
Platelet disaggregation rate [2, 3]: 72.44%

CNCCO [2-(methylamino)ethanol]
Platelet disaggregation rate [2, 6]: 82.49%%

CNCc1ccc(O)cc1 [4-[(methylamino)methyl]phenol]
Platelet disaggregation rate [2, 6]: 59.43%

NCCCC(=O)O [4-aminobutyric acid]
pKa ([1]; pKa, Table 4): 10.4

CCCCc1ccc(O)cc1 [4-butylphenol, reference compound]
Platelet disaggregation rate [2, 6]: 9.43%

N.N.O=P(O)(O)O [(NH4)2HPO4, ammonium hydrogen phosphate]
disaggregation effect [2, 7]: 99.25%

N.N.N.O=P(O)(O)O [(NH4)3PO4, ammonium phosphate]
disaggregation effect [2, 7]: 94.87%

Br.N [NH4Br, ammonium bromide]
disaggregation effect [2, 7]: 93.48%

N.N.O=C(O)C(=O)O [NH4C2O4, ammonium oxalate]
disaggregation effect [2, 7]: 87.67%

N.O=P(O)(O)O [NH4H2PO4, ammonium dihydrogen phosphate]
disaggregation effect [2, 7]: 86.24%

I.N [NH4I, ammonium iodide]
disaggregation effect [2, 7]: 92.75%

N.O [NH4OH, ammonia water]
disaggregation effect [2, 7]: 83.05%

N.N#CS [NH4SCN, ammonium thiocyanate]
disaggregation effect [2, 7]: 85.78%

[Cl-].[Na+] [NaCl, reference compound]
disaggregation effect [2, 7]: 18.90%

CC=O [acetaldehyde, reference compound]
Platelet disaggregation rate [2, 6]: 16.54%

CC(N)=O [acetamide]
Platelet disaggregation rate [2, 6]: 64.57%
Platelet disaggregation rate [2, 3]: 44.44%

CC(=O)O [acetate, reference compound]
Platelet disaggregation rate [2, 6]: 11.75%

CC(=O)CC(C)=O [acetylacetone, reference compound]
Platelet disaggregation rate [2, 6]: 8.45%

Cl.N [ammonium chloride]
disaggregation effect [2, 7]: 95.70%
disaggregation effect ([2]; FIG. 14, 50 mmol/L (total for combination, equal parts), ADP 0.1 mmol/L): 66.27%
disaggregation rate ([2]; Table 6, 0.01 mol/L, pH 4.0): 18.62%
disaggregation rate ([2]; Table 6, 0.01 mol/L, pH 5.5): 31.70%
disaggregation rate ([2]; Table 6, 0.01 mol/L, pH 6.5): 59.61%
disaggregation rate ([2]; Table 6, 0.01 mol/L, pH 7.5): 94.05%
disaggregation rate ([2]; Table 6, 0.01 mol/L, pH 8.5): 94.62%
disaggregation rate ([2]; Table 6, 0.01 mol/L, pH 9.5): 95.70%
disaggregation rate ([2]; Table 6, 0.01 mol/L, pH 11.0): 97.72%

Nc1ccccc1 [aniline]
Platelet disaggregation rate [2, 3]: 56.26%

O=S(=O)(O)c1ccccc1 [benzenesulfonic acid, reference compound]
Platelet disaggregation rate [2, 6]: 13.77%

CCCCN [butylamine]
Platelet disaggregation rate [2, 3]: 87.53%
Platelet disaggregation rate [2, 8]: 84.34%

CCCC(=O)O [butyric acid, reference compound]
Platelet disaggregation rate [2, 6]: 11.45%

CC(=O)NC(C)=O [diacetamide]
Platelet disaggregation rate [2, 6]: 75.43%

CCS(=O)(=O)O [ethanesulfonic acid, reference compound]
Platelet disaggregation rate [2, 6]: 16.54%

CCO [ethanol, reference compound]
Platelet disaggregation rate [2, 6]: 14.46%

NCCO [ethanolamine]
Platelet disaggregation rate [2, 6]: 91.45%
Platelet disaggregation rate [2, 3]: 86.45%
Platelet disaggregation rate [2, 5]: 88.45%

C=O [formaldehyde, reference compound]
Platelet disaggregation rate [2, 6]: 13.85%

NC(=O)CCC(N)C(=O)O (stereo not shown) [glutamine]
Platelet disaggregation rate [2, 4]: 59.25%

NCC(=O)O [glycine]
Platelet disaggregation rate [2, 6]: 65.47%
Platelet disaggregation rate [2, 3]: 65.47%
disaggregation rate [2, 9]: 70.47%

CCCN [n-propylamine]
Platelet disaggregation rate [2, 8]: 85.53%

Oc1ccccc1 [phenol, reference compound]
Platelet disaggregation rate [2, 6]: 8.44%

CNCC(=O)O [sarcosine]
Platelet disaggregation rate [2, 6]: 64.75%

CC(=O)O.NC(CO)(CO)CO [tris(hydroxymethyl)aminomethane acetate]
disaggregation rate [2, 9]: 75.23%

butanol [reference compound]
Platelet disaggregation rate [2, 6]: 13.14%
